Data published in PMC12281424, “A Rac-specific competitive inhibitor of guanine nucleotide binding reduces metastasis in triple-negative breast cancer” (Cell Reports Medicine, 2025).

Assays:
[1] = target: T1, RAC2 (Homo sapiens, UniProt P15153); test: GEF-stimulated nucleotide exchange; format: biochemical; set-up: dose or concentration left out as unconfirmed
T1 construct: Full-length RAC2, RHOG, RHOA and CDC42 were purified as previously described; made in house
Excerpt: (§1) Figure 4 A41 selectively impairs RAC protein activation (A) Representative surface plasmon resonance (SPR) sensograms of binding of immobilized RHOA or CDC42 with indicated increasing concentrations of A41 (N > 3). (B) Effect of A41 on GEF-stimulated RAC2, RHOG, RHOA, and CDC42 nucleotide exchange. […] Kobs is expressed as mean ± SEM. ∗p < 0.001 vs. control. (C) Effect of A41 on RAC1 G30S activation. […] The GEF TRIO was used to induce nucleotide exchange (N = 3). Data are expressed as mean ± SEM. (D) Immunoblot analysis and associated quantification of RAC-GTP level and total RAC expression in NIH-3T3 fibroblasts expressing RAC wild-type (RAC1 WT) or RAC1 oncomutants (RAC1 P29S and RAC1b) in the absence (Ctrl) and presence of A41 (10 μM). RAC activation was measured as the ratio of RAC-GTP to total RAC and expressed relative to Ctrl condition. Data are presented as mean ± SEM. ∗∗∗p < 0.001 vs. controls.
(§2) Full-length RAC1 carrying a 6xHis tag in C-terminus was purified as previously described.[64] […] Specific exchange activity toward RHOA determined by fluorescence kinetics is 0.04 s^−1M^−1.
(§3) Nucleotide exchange kinetics were measured by recording the increase in fluorescence following the association of mant-GTP on GDP-bound RHO protein or the decay in fluorescence following the dissociation of mant-GDP pre-loaded onto the RHO protein (λEx = 360 nm, λEm = 440 nm) as previously described.[39] […]

[2] = target: T2, RHOG (Homo sapiens, UniProt P84095); test: GEF-stimulated nucleotide exchange; format: biochemical; set-up: dose or concentration left out as unconfirmed
T2 construct: Full-length RAC2, RHOG, RHOA and CDC42 were purified as previously described; made in house
Excerpt: as §1, §2, §3

[3] = In vivo toxicity, chronic daily intraperitoneal injection; set-up: species or system mouse; details: 1, 10 and 25 mg/kg daily i.p. for 1 month
Description: In order to assess the anti-tumor properties of A41 in vivo, we first would like to make sure of the safety and the absence of major off-target effects of A41. […] In vivo safety has been addressed by monitoring various biological parameters in mice chronically receiving daily intraperitoneal A41 injection (1, 10, and 25 mg/kg) for 1 month. […] We then analyzed pharmacokinetics and tissue distribution of A41 following intraperitoneal injection of A41 (25 mg/kg). A41 rapidly reached its peak plasma concentration (∼15 min, 15.056 ± 0.5 μg/mL), which then declined over 2–3 h (Figure S7). A41 was detected in the liver, heart, and lungs.
Supplementary Fig. 6: In vivo A41 toxicity. (a) Effect of chronic administration of A41 at the indicated concentrations by daily intraperitoneal injections in mice on weight gain glycemia. (b) and (c), Glycemia (b) and plasmatic concentration of transaminases (ALAT and ASAT), albumin, urea, creatinine and total protein in mice after of 1 month of chronic administration of A41 at indicated concentrations (c). N=6-7

[4] = target: cKit(V560G)(h) (Homo sapiens, UniProt P10721, V560G); test: Kinase Profiler; format: biochemical
Description: (§4) Blood cell counts, kinase profiler, safety screen, bacterial cytotoxicity, Ames, micronucleus assays were performed by the company Eurofins (France). The kinase profiler was performed by the company Eurofins (Discovery, Panlab and Cerep).

[5] = target: EGFR(T790M,L858R)(h) (Homo sapiens, UniProt P00533, L858R/T790M); test: Kinase Profiler; format: biochemical
Description: (§5) The kinase profiler was performed by the company Eurofins (Discovery, Panlab and Cerep).

[6] = target: Flt3(D835Y)(h) (Homo sapiens, UniProt P36888, D835Y); test: Kinase Profiler; format: biochemical
Description: as §5

[7] = target: IKKε(h) (Homo sapiens, UniProt Q14164); test: Kinase Profiler; format: biochemical
Description: as §4

[8] = target: NEK7(h) (Homo sapiens, UniProt Q8TDX7); test: Kinase Profiler; format: biochemical
Description: as §5

[9] = target: PDGFRα(D842V)(h) (Homo sapiens, UniProt P16234, D842V); test: Kinase Profiler; format: biochemical
Description: as §5

[10] = target: PDHK4(h) (Homo sapiens, UniProt Q16654); test: Kinase Profiler; format: biochemical
Chain of PDHK4(h) (Q16654 whole entry): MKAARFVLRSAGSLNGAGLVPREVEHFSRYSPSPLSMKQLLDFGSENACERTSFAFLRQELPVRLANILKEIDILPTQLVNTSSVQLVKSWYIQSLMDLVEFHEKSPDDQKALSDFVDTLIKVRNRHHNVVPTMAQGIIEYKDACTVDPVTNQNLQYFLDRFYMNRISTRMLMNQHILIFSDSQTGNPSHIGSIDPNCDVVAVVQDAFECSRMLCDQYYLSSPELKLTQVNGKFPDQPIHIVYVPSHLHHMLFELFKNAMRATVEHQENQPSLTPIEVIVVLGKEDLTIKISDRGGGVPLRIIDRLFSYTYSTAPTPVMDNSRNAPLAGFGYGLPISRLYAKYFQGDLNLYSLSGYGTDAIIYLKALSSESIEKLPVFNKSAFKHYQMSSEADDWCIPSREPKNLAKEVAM
Description: as §4

Chain of PDGFRα(D842V)(h) (P16234 24-1089 D842V): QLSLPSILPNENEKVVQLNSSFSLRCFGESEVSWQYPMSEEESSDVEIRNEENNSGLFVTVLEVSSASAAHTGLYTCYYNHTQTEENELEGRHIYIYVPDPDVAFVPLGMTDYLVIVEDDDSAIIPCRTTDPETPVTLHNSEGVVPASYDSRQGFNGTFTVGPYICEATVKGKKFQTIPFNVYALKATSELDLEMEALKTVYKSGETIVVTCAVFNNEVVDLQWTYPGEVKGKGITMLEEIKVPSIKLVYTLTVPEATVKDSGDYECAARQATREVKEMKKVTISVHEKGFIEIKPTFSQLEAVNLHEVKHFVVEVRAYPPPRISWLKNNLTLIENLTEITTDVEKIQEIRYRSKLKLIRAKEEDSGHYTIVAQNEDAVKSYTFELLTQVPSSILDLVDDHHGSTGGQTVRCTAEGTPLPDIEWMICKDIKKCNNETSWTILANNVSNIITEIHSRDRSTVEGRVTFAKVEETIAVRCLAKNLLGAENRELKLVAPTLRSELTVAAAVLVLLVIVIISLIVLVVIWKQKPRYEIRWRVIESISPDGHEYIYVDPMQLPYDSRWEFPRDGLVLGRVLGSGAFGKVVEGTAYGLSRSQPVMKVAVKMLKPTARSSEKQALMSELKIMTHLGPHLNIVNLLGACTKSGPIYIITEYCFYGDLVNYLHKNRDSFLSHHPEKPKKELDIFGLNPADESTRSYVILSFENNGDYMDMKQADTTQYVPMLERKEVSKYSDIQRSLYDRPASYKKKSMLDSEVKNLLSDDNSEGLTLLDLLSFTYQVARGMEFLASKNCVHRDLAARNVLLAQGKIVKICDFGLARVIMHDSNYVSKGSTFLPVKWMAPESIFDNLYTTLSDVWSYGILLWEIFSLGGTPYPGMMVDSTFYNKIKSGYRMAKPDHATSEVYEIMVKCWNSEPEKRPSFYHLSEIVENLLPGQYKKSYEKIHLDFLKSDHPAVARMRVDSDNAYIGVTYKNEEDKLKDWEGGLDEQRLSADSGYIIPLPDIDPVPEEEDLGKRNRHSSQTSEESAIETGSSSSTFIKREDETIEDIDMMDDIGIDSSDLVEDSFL
Chain of IKKε(h) (Q14164 whole entry): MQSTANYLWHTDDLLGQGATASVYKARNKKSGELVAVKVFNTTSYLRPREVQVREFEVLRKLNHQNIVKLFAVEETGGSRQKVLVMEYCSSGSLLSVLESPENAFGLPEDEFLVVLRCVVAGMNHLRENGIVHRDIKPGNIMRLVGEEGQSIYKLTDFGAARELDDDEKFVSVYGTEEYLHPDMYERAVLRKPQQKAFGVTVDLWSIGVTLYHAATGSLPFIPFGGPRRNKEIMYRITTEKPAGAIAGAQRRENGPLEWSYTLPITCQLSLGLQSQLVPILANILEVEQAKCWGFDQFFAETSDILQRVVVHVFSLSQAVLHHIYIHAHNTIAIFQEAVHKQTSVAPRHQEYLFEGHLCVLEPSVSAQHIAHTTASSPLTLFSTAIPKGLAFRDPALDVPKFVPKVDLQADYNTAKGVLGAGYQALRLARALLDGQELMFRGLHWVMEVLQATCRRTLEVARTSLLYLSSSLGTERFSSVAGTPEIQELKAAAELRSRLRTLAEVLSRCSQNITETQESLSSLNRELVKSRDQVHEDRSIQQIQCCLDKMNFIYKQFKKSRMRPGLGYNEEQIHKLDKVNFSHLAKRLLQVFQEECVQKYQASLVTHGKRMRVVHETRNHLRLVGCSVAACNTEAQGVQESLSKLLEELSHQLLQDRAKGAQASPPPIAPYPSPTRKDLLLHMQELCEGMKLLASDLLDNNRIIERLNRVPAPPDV
T2 sequence (P84095 whole entry): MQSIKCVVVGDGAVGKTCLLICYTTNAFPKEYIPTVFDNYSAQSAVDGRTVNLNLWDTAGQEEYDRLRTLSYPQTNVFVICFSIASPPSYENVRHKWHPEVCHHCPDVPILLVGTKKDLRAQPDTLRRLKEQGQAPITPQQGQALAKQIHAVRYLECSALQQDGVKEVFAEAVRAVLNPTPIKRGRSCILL
Chain of cKit(V560G)(h) (P10721 26-976 V560G): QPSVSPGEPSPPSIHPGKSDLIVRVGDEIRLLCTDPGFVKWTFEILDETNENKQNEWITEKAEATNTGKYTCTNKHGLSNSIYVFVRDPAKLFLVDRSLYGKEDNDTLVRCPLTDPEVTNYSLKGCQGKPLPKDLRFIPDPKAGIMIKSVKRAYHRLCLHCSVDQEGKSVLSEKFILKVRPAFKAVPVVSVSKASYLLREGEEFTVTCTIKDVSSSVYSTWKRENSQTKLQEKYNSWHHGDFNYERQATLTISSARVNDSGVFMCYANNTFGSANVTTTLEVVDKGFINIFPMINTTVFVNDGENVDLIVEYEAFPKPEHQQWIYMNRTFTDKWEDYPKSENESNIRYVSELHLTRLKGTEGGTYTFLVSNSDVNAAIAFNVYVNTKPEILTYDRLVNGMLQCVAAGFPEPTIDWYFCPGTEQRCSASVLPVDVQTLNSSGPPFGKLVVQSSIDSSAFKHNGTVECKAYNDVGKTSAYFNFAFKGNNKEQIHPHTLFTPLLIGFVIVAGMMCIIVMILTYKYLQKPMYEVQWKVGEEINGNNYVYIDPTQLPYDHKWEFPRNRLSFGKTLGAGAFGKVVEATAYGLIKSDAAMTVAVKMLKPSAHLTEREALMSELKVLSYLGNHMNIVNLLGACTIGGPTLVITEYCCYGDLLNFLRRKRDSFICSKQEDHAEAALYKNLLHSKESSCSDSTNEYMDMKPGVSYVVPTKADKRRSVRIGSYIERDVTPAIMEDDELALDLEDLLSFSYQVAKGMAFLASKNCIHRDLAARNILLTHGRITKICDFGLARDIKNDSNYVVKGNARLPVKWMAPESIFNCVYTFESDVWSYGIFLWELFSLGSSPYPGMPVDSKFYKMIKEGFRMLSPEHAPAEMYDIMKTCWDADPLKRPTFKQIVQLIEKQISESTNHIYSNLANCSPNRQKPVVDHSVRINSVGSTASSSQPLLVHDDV
Chain of NEK7(h) (Q8TDX7 whole entry): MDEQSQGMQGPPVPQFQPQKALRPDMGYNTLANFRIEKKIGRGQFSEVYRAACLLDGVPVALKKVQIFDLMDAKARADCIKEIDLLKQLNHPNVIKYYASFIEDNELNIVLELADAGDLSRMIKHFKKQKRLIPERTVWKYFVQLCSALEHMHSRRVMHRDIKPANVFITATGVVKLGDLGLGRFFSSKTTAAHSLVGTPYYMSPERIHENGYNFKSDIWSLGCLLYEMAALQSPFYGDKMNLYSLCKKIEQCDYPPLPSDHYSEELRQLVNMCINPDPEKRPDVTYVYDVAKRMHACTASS

Question: Which “TRIO-induced activation of RAC2” value [1] does the source give for COc1ccc(OC)c(NS(=O)(=O)c2ccc(NC(=O)CCSc3ccc(C)cc3)cc2)c1 [Compound A41] here?
Answer: reduced

Question: What about the “TRIO-induced RHOG activation” value [2] of the same molecule?
Answer: no effect

Question: What about the “biological parameters incl. weight” value [3] of the same molecule?
Answer: None of the parameters measured, including the weight of the mice, was affected

Question: What about the deaths [3] of the same molecule?
Answer: No deaths

Question: And the “visual inspection (suffering, behavior)” value [3]?
Answer: no sign of suffering or abnormal behavior

Question: And the “Activity(%)” value [4]?
Answer: 115%

Question: What about the “Activity(%)” value [5] of the same molecule?
Answer: 104%

Question: What about the “Activity(%)” value [6] of the same molecule?
Answer: 101%

Question: And the “Activity(%)” value [7]?
Answer: 106%

Question: What about the “Activity(%)” value [8] of the same molecule?
Answer: 97%

Question: And the “Activity(%)” value [9]?
Answer: 112%

Question: And the “Activity(%)” value [10]?
Answer: 93%
